Test results from patent publication US6156700A, “3-(1,2-Benzisothiazol- and isoxazol-5-yl)-2,4(1H,3H)-pyrimidinedione or thione and 3-(1,2-benzisothiazol- and isoxazol-5-yl)-4(3H)-pyrimidinone or thione herbicidal agents” (American Cyanmid Company, priority 1998, dated 2000).

How the values were obtained:
Details in all cases: 0.0630 kg/ha
[1] = system: Rice, Tebonnet, Oryza sativa; assay: Postemergence herbicidal evaluation, ORYSAT; format: in vivo, (L.) Tebonnet
Procedure: (§1) In the tests, seedling plants are grown in jiffy flats for about two weeks. The test compounds are dispersed in 50/50 acetone/water mixtures containing 0.5% TWEEN®20, a polyoxyethylene sorbitan monolaurate surfactant of Atlas Chemical Industries, in sufficient quantities to provide the equivalent of about 0.0157 kg to 0.500 kg per hectare of active compound when applied to the plants through a spray nozzle operating at 40 psi for a predetermined time. After spraying, the plants are placed on greenhouse benches and are cared for in accordance with conventional greenhouse procedures. From four to five weeks after treatment, the seedling plants are examined and rated according to the rating system set forth below. Where more than one test is involved for a given compound, the data are averaged.
(§2) Results of herbicide evaluation are expressed on a rating scale (0-9). The scale is based upon a visual observation of plant stand, vigor, malformation, size, chlorosis and overall plant appearance as compared with a control.

[2] = system: Ragweed, Common, Ambrosia artemisifolia; assay: Postemergence herbicidal evaluation, AMBEL; format: in vivo, L.
Procedure: as §1, §2

Corn, Field, Zea mays = assay: Postemergence herbicidal evaluation, ZEAMX; format: in vivo, L.
Procedure: as §1, §2

[3] = system: Barnyardgrass, Echinochloa crus-galli; assay: Postemergence herbicidal evaluation, ECHCG; format: in vivo, (L.) Beau
Procedure: as §1, §2

[4] = system: Foxtail, Green, Setaria viridis; assay: Postemergence herbicidal evaluation, SETVI; format: in vivo, (L.) Beau
Procedure: as §1, §2

[5] = system: Velvetleaf, Abutilon theophrasti; assay: Postemergence herbicidal evaluation, ABUTH; format: in vivo, Medic.
Procedure: as §1, §2

[6] = system: Morningglory, Ivyleaf, Ipomoea hederacea; assay: Postemergence herbicidal evaluation, IPOHE; format: in vivo, (L.) Jacq.
Procedure: as §1, §2

Galium, Galium aparine = assay: Postemergence herbicidal evaluation, GALAP; format: in vivo
Procedure: as §1, §2

[7] = system: Lambsquarters, Common, Chenopodium album; assay: Postemergence herbicidal evaluation, CHEAL; format: in vivo, L.
Procedure: as §1, §2

[8] = system: Wheat, Winter, cv Riband, Triticum aestivum; assay: Postemergence herbicidal evaluation, TRZAWR; format: in vivo
Procedure: as §1, §2

[9] = system: Soybean, Williams, Glycine max; assay: Postemergence herbicidal evaluation, GLXMAW; format: in vivo, (L.) Merr. cv Williams
Procedure: as §1, §2

[10] = system: Sicklepod, Cassia obtusifolia; assay: Postemergence herbicidal evaluation, CASOB; format: in vivo, L.
Procedure: as §1, §2

Structure (SMILES) | herbicide rating (0-9) [1] | herbicide rating (0-9) [2] | herbicide rating (0-9) (Corn, Field, Zea mays) | herbicide rating (0-9) [3] | herbicide rating (0-9) [4] | herbicide rating (0-9) [5] | herbicide rating (0-9) [6] | herbicide rating (0-9) (Galium, Galium aparine) | herbicide rating (0-9) [7] | herbicide rating (0-9) [8] | herbicide rating (0-9) [9] | herbicide rating (0-9) [10]
C=CCOc1ccc(C)cc1-c1nsc2ccc(-n3c(=O)cc(C(F)(F)F)n(C)c3=O)cc12 [Compound 65, 3-{3-[6-(Allyloxy)-m-tolyl)-1,2-benzisothiazol-5-yl}-1-methyl-6-(trifluoromethyl)-2,4(1H,3H)-pyrimidinedione] | 1.5 | 9.0 | 5.5 | 1.0 | 9.0 | 9.0 | 9.0 | 4.0 | 9.0 | 3.5 | 5.5 | 9.0
Cc1ccc(OCC(=O)OC(C)(C)C)c(-c2nsc3ccc(-n4c(=O)cc(C(F)(F)F)n(C)c4=O)cc23)c1 [Compound 68, tert-Butyl {{2-{5-[3,6-dihydro-3-methyl-2,6-dioxo-4-(trifluoromethyl)-1(2H)-pyrimidinyl]-1,2-benzisothiazol-3-yl}-p-tolyl}oxy}acetate] | 2.0 | 5.0 | 5.0 | 5.0 | 9.0 | 6.0 | 9.0 | 2.0 | 9.0 | 3.5 | 5.5 | 9.0
C=CCOC(=O)COc1ccc(C)cc1-c1nsc2ccc(-n3c(=O)cc(C(F)(F)F)n(C)c3=O)cc12 [Compound 69, Allyl {{2-{5-[3,6-dihydro-3-methyl-2,6-dioxo-4-(trifluoromethyl)-1(2H)-pyrimidinyl]-1,2-benzisothiazol-3-yl}-p-tolyl}oxy}acetate] | 8.0 | 9.0 | 8.5 | 9.0 | 9.0 | 9.0 | 9.0 | 9.0 | 9.0 | 8.0 | 9.0 | 9.0
Cc1ccc(OCC(=O)OCCN(C)C)c(-c2nsc3ccc(-n4c(=O)cc(C(F)(F)F)n(C)c4=O)cc23)c1 [Compound 70, 2-(Dimethylamino)ethyl {{2-[5-[3,6-dihydro-3-methyl-2,6-dioxo-4-(trifluoromethyl)-1(2H)-pyrimidinyl]-1,2-benzisothiazol-3-yl}-p-tolyl}oxy}acetate] | 3.0 | 9.0 | 6.0 | 9.0 | 9.0 | 9.0 | 9.0 | 5.0 | 9.0 | 5.0 | 8.0 | 9.0
Cc1ccc(OCC(=O)OCCCl)c(-c2nsc3ccc(-n4c(=O)cc(C(F)(F)F)n(C)c4=O)cc23)c1 [Compound 71, 2-Chloroethyl {{2-{5-[3,6-dihydro-3-methyl-2,6-dioxo-4-(trifluoromethyl)-1(2H)-pyrimidinyl]-1,2-benzisothiazol-3-yl}-p-tolyl}oxy}acetate] | 8.0 | 9.0 | 8.5 | 9.0 | 9.0 | 9.0 | 9.0 | 9.0 | 9.0 | 9.0 | 9.0 | 9.0
Cc1ccc(OCC(=O)OCc2ccccn2)c(-c2nsc3ccc(-n4c(=O)cc(C(F)(F)F)n(C)c4=O)cc23)c1 [Compound 72, 2-Pyridylmethyl {{2-{5-[3,6-dihydro-3-methyl-2,6-dioxo-4-(trifluoromethyl)-1(2H)-pyrimidinyl]-1,2-benzisothiazol-3-yl}-p-tolyl}oxy}acetate] | 7.5 | 9.0 | 8.0 | 9.0 | 9.0 | 9.0 | 9.0 | 9.0 | 9.0 | 7.5 | 9.0 | 7.0
Cc1ccc(OCC(=O)OCC#Cc2ccccc2)c(-c2nsc3ccc(-n4c(=O)cc(C(F)(F)F)n(C)c4=O)cc23)c1 [Compound 73] | 5.5 | 9.0 | 6.0 | 9.0 | 9.0 | 9.0 | 9.0 | 9.0 | 9.0 | 4.5 | 9.0 | 9.0
C#CC(C)OC(=O)COc1ccc(C)cc1-c1nsc2ccc(-n3c(=O)cc(C(F)(F)F)n(C)c3=O)cc12 (stereo not drawn) [Compound 74, 1-Methyl-2-propynyl {{2-{5-[3,6-dihydro-3-methyl-2,6-dioxo-4-(trifluoromethyl)-1(2H)-pyrimidinyl]-1,2-benzisothiazol-3-yl}-p-tolyl}oxy}acetate] | 7.0 | 9.0 | 8.5 | 9.0 | 9.0 | 9.0 | 9.0 | 9.0 | 9.0 | 7.5 | 9.0 | 9.0
CC#CCOC(=O)COc1ccc(C)cc1-c1nsc2ccc(-n3c(=O)cc(C(F)(F)F)n(C)c3=O)cc12 [Compound 75] | 6.5 | 9.0 | 7.5 | 9.0 | 9.0 | 9.0 | 9.0 | 7.0 | 9.0 | 9.0 | 9.0 | 7.0
CC#CC(C)OC(=O)COc1ccc(C)cc1-c1nsc2ccc(-n3c(=O)cc(C(F)(F)F)n(C)c3=O)cc12 (stereo not drawn) [Compound 76, 1-Methyl-2-butynyl {{2-{5-[3,6-dihydro-3-methyl-2,6-dioxo-4-(trifluoromethyl)-1(2H)-pyrimidinyl]-1,2-benzisothiazol-3-yl}-p-tolyl}oxy}acetate] | 6.0 | 9.0 | 8.0 | 9.0 | 9.0 | 9.0 | 9.0 | 9.0 | 9.0 | 9.0 | 9.0 | 9.0
